Patent publication US11485713B2, “Androgen receptor modulators and methods for their use” (ESSA Pharma, Inc., priority 2018, dated 2022)

Legend:
[1] = tested on: LNCaP ARE-Luc; test: Luciferase assay in LNCaP cell lysates (LNCaP ARE-Luc); format: cell-based; conditions: Homo sapiens, Firefly Luciferase Assay System, read-out: LNCaP ARE-Luc % inhibition IC50 Ranges
Experimental: Lysates were thawed on ice then collected into V-bottom 96-well tissue culture plates. Lysates were centrifuged at 4° C. for 5 minutes at 4000 rpm. To measure luminescence of LNCaP cell lysates the Firefly Luciferase Assay System (Promega) was employed, according to manufacturer's protocol. Relative luminescence units (RLU) in cell lysates were detected for 10 seconds using Promega GoMax-Multi Detection Luminometer (Promega).
Statistical analyses were performed using GraphPad Prism (Version 6.01 for Windows; La Jolla, Calif., USA). Comparisons between treatment and control groups were compared using Two-Way ANOVA with post-hoc Dunnett's and Tukey's tests. Differences were considered statistically significant at P values less than 0.05. Densitometric quantification of relative AR levels was determined by Image.

[2] = Microsomal stability assay, HLM; format: in vitro ADME; conditions: human, pH 7.4, 1 μM test compound, 0.5 mg/mL liver microsomes protein, 37° C., 0-60 min, read-out: HLM +/− NADPH: Clint (μL/min/mg protein)
Text: Microsomal Stability Assay: Microsomal stability assay is a widely used in vitro model to characterize the metabolic conversion by phase I enzymes, such as cytochrome P450 (CYP) enzymes. Since metabolism is known to be highly variable in different species, microsomal stability assay is commonly run in multiple species. Metabolic stability of testing compound can be evaluated using human, rat, mouse, or other animal liver or intestine microsomes to predict intrinsic clearance.
The assay was carried out in 96-well microtiter plates at 37° C. Reaction mixtures (25 μL) contained a final concentration of 1 μM test compound, 0.5 mg/mL liver microsomes protein, and 1 mM NADPH and/or 1 mM UDPGA (with alamethicin) in 100 mM potassium phosphate, pH 7.4 buffer with 3 mM MgCl2. The incubation was done with N=1, but duplicate incubation at each time point can be prepared if necessary. At each of the time points (for example, 0, 15, 30, and 60 minutes), 150 μL of quench solution (100% acetonitrile with 0.1% formic acid) with internal standard was transferred to each well. Besides the zero minute controls, mixtures containing the same components except the NADPH can also be prepared as the negative control. Verapamil was included as a positive control to verify assay performance. Plates were sealed, vortexed, and centrifuged at 4° C. for 15 minutes at 4000 rpm. The supernatant is transferred to fresh plates for LC/MS/MS analysis.
Summarized conditions: [Compound]=1 μM, [LM]=0.5 mg/mL, [NADPH]=1 mM and/or [UDPGA]=1 mM, Buffer=100 mM Potassium Phosphate, pH 7.4 with 3 mM MgCl2, Time=0, 15, 30, and 60 min, and Temperature=37° C.
All samples were analyzed on LC/MS/MS using an AB Sciex API 4000 instrument, coupled to a Shimadzu LC-20AD LC Pump system. Analytical samples were separated using a Waters Atlantis T3 dC18 reverse phase HPLC column (20 mm×2.1 mm) at a flow rate of 0.5 mL/min. The mobile phase consisted of 0.1% formic acid in water (solvent A) and 0.1% formic acid in 100% acetonitrile (solvent B).
The extent of metabolism is calculated as the disappearance of the test compound, compared to the 0-min time incubation. Initial rates are calculated for the compound concentration and used to determine half-life (t½) values and subsequently, the intrinsic clearance (Clint). Clint=(0.693)(1/t½ (min))(g of liver/kg of body weight)(mL incubation/mg of microsomal protein)(45 mg of microsomal protein/g of liver weight)

Compound	IC50 [1]	microsomal CLint at 1 μM [2]
CC(C)(c1ccc(OCCCCl)cc1)c1ccc(OCC(=O)CNS(C)(=O)=O)cc1Cl [Compound A14]	≥ 250 nM	≥ 48 µL/min/mg
CN(CCCCl)c1c(Cl)cc(C(C)(C)c2ccc(OCC(=O)CNS(C)(=O)=O)cc2)cc1Cl [Compound A36]	100 to 250 nM	≥ 48 µL/min/mg
CS(=O)(=O)NCC(=O)COc1cccc(Cc2ccc(Cl)c(OCCCCl)c2Cl)c1 [Compound A24]	≥ 250 nM	≥ 48 µL/min/mg
COc1cc(C(C)(C)c2ccc(OCCCCl)cc2)ccc1OCC(=O)CNS(C)(=O)=O [Compound A11]	≥ 250 nM	≥ 48 µL/min/mg
CC(C)(c1ccc(OCC(=O)CNS(C)(=O)=O)cc1)c1ccc(OCCCCl)cc1Cl [Compound A6]	≥ 250 nM	≥ 48 µL/min/mg
CS(=O)(=O)NCC(=O)COc1ccc(C2(c3cc(Cl)c(OCCCCl)c(Cl)c3)COC2)cc1 [Compound A43, N-(3-(4-(3-(3,5-dichloro-4-(3-chloropropoxy)phenyl)oxetan-3-yl)phenoxy)-2-oxopropyl)methanesulfonamide]	< 100 nM	≥ 48 µL/min/mg
CC(C)(c1ccc(CNC(=O)CNS(C)(=O)=O)cc1)c1cc(Cl)c(OCCCCl)c(Cl)c1 [Compound A46, N-(4-(2-(3,5-dichloro-4-(3-chloropropoxy)phenyl)propan-2-yl)benzyl)-2-(methylsulfonamido)acetamide]	≥ 250 nM	12 to 48 µL/min/mg
CC(C)(c1ccc(OCC(=O)NCCNS(C)(=O)=O)cc1)c1cc(Cl)c(OCCCCl)c(Cl)c1 [Compound A62]	≥ 250 nM	12 to 48 µL/min/mg
COc1cc(OCC(=O)CNS(C)(=O)=O)ccc1C(C)(C)c1ccc(OCCCCl)cc1 [Compound A12]	≥ 250 nM	≥ 48 µL/min/mg
CC(C)(c1ccc(OCC(=O)CNS(C)(=O)=O)cc1)c1ccc(OCCCCl)c(C#N)c1 [Compound A7]	< 100 nM	≥ 48 µL/min/mg
CC(C)(c1ccc(OCC(=O)CNS(C)(=O)=O)cc1)c1cc(Cl)c(OCc2ccc(Cl)cc2)c(Cl)c1 [Compound A38]	≥ 250 nM	≥ 48 µL/min/mg
CC(O)(CCl)COc1c(Cl)cc(C(C)(C)c2ccc(OCC(=O)CNS(C)(=O)=O)cc2)cc1Cl (stereo not drawn) [Compound A52, N-(3-(4-(2-(3,5-dichloro-4-(3-chloro-2-hydroxy-2-methylpropoxy)phenyl)propan-2-yl)phenoxy)-2-oxopropyl)methanesulfonamide]	< 100 nM	≥ 48 µL/min/mg
CN(C)C(=O)NCc1ccc(C(C)(C)c2cc(Cl)c(OCCCCl)c(Cl)c2)cc1 [Compound A47]	≥ 250 nM	≥ 48 µL/min/mg
COc1cc(OCCCCl)ccc1C(C)(C)c1ccc(OCC(=O)CNS(C)(=O)=O)cc1 [Compound A4]	≥ 250 nM	≥ 48 µL/min/mg
CC(C)(c1ccc(OCC(=O)CNS(C)(=O)=O)c(F)c1)c1cc(Cl)c(OCCCCl)c(Cl)c1 [Compound A48]	100 to 250 nM	≥ 48 µL/min/mg
CC(C)(c1ccc(OCC(=O)CS(C)(=O)=O)cc1)c1cc(Cl)c(OC[C@H](O)CCl)c(Cl)c1 [A54(S), (S)-1-(4-(2-(3,5-dichloro-4-(3-chloro-2-hydroxypropoxy)phenyl)propan-2-yl)phenoxy)-3-(methylsulfonyl)propan-2-one]	≥ 250 nM	–
CC(O)(CCl)COc1c(Cl)cc(C(C)(C)c2ccc(OCC(=O)CS(C)(=O)=O)cc2)cc1Cl (stereo not drawn) [Compound A53, 1-(4-(2-(3,5-dichloro-4-(3-chloro-2-hydroxy-2-methypropoxy)phenyl)propan-2-yl)phenoxy)-3-(methylsulfonyl)propan-2-one]	≥ 250 nM	–

More lines, now with the values ahead:

IC50 [1]	microsomal CLint at 1 μM [2]	Compound
100 to 250 nM	≥ 48 µL/min/mg	CS(=O)(=O)NCC(=O)COc1ccc(CCc2cc(Cl)c(OCC(O)CCl)c(Cl)c2)cc1 (stereo not drawn) [Compound A75, N-(3-(4-(3,5-dichloro-4-(3-chloro-2-hydroxypropoxy)phenethyl)phenoxy)-2-oxopropyl)methanesulfonamide]
≥ 250 nM	–	CC(C)(c1ccc(OC(F)(F)C(=O)C(N)=O)cc1)c1cc(Cl)c(OCCCCl)c(Cl)c1 [Compound A92]
≥ 250 nM	< 12 µL/min/mg	CC(C)(c1ccc(NC(=O)C(=O)C(F)(F)F)cc1)c1cc(Cl)c(OCCCCl)c(Cl)c1 [Compound A93]
≥ 250 nM	≥ 48 µL/min/mg	CN(CC(=O)COc1ccc(C(C)(C)c2cc(Cl)c(OCCCCl)c(Cl)c2)cc1)S(C)(=O)=O [Compound A69]
≥ 250 nM	12 to 48 µL/min/mg	CC(C)(c1ccc(OCC(=O)NNS(C)(=O)=O)cc1)c1cc(Cl)c(OCCCCl)c(Cl)c1 [Compound A80]
≥ 250 nM	< 12 µL/min/mg	CC(O)(CCl)COc1c(Cl)cc(C(C)(C)c2ccc(NC(=O)C(=O)C(F)(F)F)cc2)cc1Cl (stereo not drawn) [Compound A95]
≥ 250 nM	≥ 48 µL/min/mg	CC(=O)N(c1ccc(OCC(=O)CNS(C)(=O)=O)cc1)c1cc(Cl)c(OCCCCl)c(Cl)c1 [Compound A71, N-(3,5-dichloro-4-(3-chloropropoxy)phenyl)-N-(4-(3-(methylsulfonamido)-2-oxopropoxy)phenyl)acetamide]
≥ 250 nM	≥ 48 µL/min/mg	CC(=O)NCC(=O)COc1ccc(C(C)(C)c2cc(Cl)c(OCCCCl)c(Cl)c2)cc1 [Compound A65]
≥ 250 nM	–	CC(=O)C(=O)Nc1ccc(C(C)(C)c2cc(Cl)c(OCC(C)(O)CCl)c(Cl)c2)cc1 (stereo not drawn) [Compound A96]
≥ 250 nM	≥ 48 µL/min/mg	CC(=O)C(=O)Nc1ccc(C(C)(C)c2cc(Cl)c(OCCCCl)c(Cl)c2)cc1 [Compound A85]
≥ 250 nM	12 to 48 µL/min/mg	CS(=O)(=O)NCC(=O)CCOc1ccc(-c2cc(Cl)c(OCCCCl)c(Cl)c2)cc1 [Compound A76]
≥ 250 nM	< 12 µL/min/mg	CC(C)(NS(C)(=O)=O)C(=O)COc1ccc(C(C)(C)c2cc(Cl)c(OCCCCl)c(Cl)c2)cc1 [Compound A64]
100 to 250 nM	–	CC(C)(c1ccc(OC(F)(F)C(=O)CNS(C)(=O)=O)cc1)c1cc(Cl)c(OCCCCl)c(Cl)c1 [Compound A99, N-(3-(4-(2-(3,5-dichloro-4-(3-chloropropoxy)phenyl)propan-2-yl)phenoxy)-3,3-difluoro-2-oxopropyl)methanesulfonamide]
< 100 nM	≥ 48 µL/min/mg	CC(C)(Oc1ccc(C(C)(C)c2cc(Cl)c(OCCCCl)c(Cl)c2)cc1)C(=O)CNS(C)(=O)=O [Compound A63]
≥ 250 nM	12 to 48 µL/min/mg	CC(C)(c1ccc(C(=O)CCCNS(C)(=O)=O)cc1)c1cc(Cl)c(OCCCCl)c(Cl)c1 [Compound A84]
≥ 250 nM	–	COCC(=O)C(F)(F)Oc1ccc(C(C)(C)c2cc(Cl)c(OCCCCl)c(Cl)c2)cc1 [Compound A100, 1-(4-(2-(3,5-dichloro-4-(3-chloropropoxy)phenyl)propan-2-yl)phenoxy)-1,1-difluoro-3-methoxypropan-2-one]
≥ 250 nM	–	CC(=O)COc1ccc(C(C)(C)c2cc(Cl)c(OCCCCl)c(Cl)c2)cc1 [Compound A74, 1-(4-(2-(3,5-dichloro-4-(3-chloropropoxy)phenyl)propan-2-yl)phenoxy)propan-2-one]
≥ 250 nM	–	CC(=O)N(CC(=O)COc1ccc(C(C)(C)c2cc(Cl)c(OCCCCl)c(Cl)c2)cc1)S(C)(=O)=O [Compound A104]
≥ 250 nM	–	CCOC(=O)CC(=O)C(F)(F)Oc1ccc(C(C)(C)c2cc(Cl)c(OCCCCl)c(Cl)c2)cc1 [Compound A101]
100 to 250 nM	–	COC(=O)C(OC)C(O)(O)C(F)(F)Oc1ccc(C(C)(C)c2cc(Cl)c(OCCCCl)c(Cl)c2)cc1 (stereo not drawn) [Compound A97]
≥ 250 nM	–	CC(C)(c1ccc(OC(F)(F)C(=O)CS(C)(=O)=O)cc1)c1cc(Cl)c(OCCCCl)c(Cl)c1 [Compound A102]
< 100 nM	–	CC(=O)Oc1ccc(C(C)(C)c2cc(Cl)c(OCCCCl)c(Cl)c2)cc1 [Compound A103]
